{"source": "patent US6383276B1", "about": "“Azomethine compound and oily magenta ink” (Fuji Photo Film Co., Ltd., priority 1999, dated 2002)", "key": {"[1]": {"experiment": "Measurement of solubility in ethyl acetate (Example 6, Comparison Example 1)", "assay_type": "physicochemical", "details": "25° C. for 20 hours, filtered through 0.2 μm filter, ink concentrated", "procedure": "With respect to each of the azomethine compounds (Ia-6), (Ia-12) and (Ia-14), 600 mg of the compound was placed in a lidded test tube. After 2 ml of ethyl acetate was added, the mixture was treated with an ultrasonic cleaner for 30 minutes. The resultant liquid was heated and stirred at 65° C. for 1 hour, and then cooled to room temperature. After leaving the test tube in a constant temperature bath at 25° C. for 20 hours, solid particles were filtered off with a micro filter having the pore size of 0.2 μm to prepare an oily magenta ink.\nEach prepared ink was concentrated to measure the solubility, but solid (crystallite) was not deposited.\nWith respect to each of the following azomethine compounds (X-1), (X-2), (X-3) and (X-4), 30 mg of the compound was placed in a lidded test tube. After 2 ml of ethyl acetate was added, the mixture was treated with an ultrasonic cleaner for 30 minutes. The resultant liquid was heated and stirred at 65° C. for 1 hour, and then cooled to room temperature. After leaving the test tube in a constant temperature bath at 25° C. for 20 hours, solid particles were filtered off with a micro filter having the pore size of 0.2 μm to prepare an oily magenta ink. [drawing 13]\nEach prepared ink was concentrated to measure the solubility."}, "[2]": {"experiment": "Absorption maximum and molar extinction coefficient of ethyl acetate solutions", "assay_type": "physicochemical", "details": "ethyl acetate solution", "procedure": "With respect to each of the ethyl acetate-base magenta inks [ethyl acetate solutions of the compounds (Ia-1), (Ia-6), (Ia-12), (Ia-13), (Ia-14) and (Ia-15)] prepared in Example 4, the absorption maximum (λmax) and molar extinction coefficient (ε) were measured.\nWith respect to each of the ethyl acetate-base magenta inks [ethyl acetate solutions of the compounds (X-1), (X-2), (X-3) and (X-4)] prepared in Comparison Example 1, the absorption maximum (λmax) was measured."}}, "data": [{"compound": "CCCCCCC(Oc1ccc(C(C)(C)CC)cc1C(C)(C)CC)C(=O)Nc1ccc(-c2nc3n(n2)N=C(C(C)(C)C)C3=Nc2ccc(N(CCC#N)CCCC)cc2)cc1", "note": "(stereo not drawn) [Ia-14]", "values": [{"measurement": "Solubility", "setting": "[1]", "value": "30.1 wt. % or more"}, {"measurement": "Absorption maximum (λmax)", "setting": "[2]; Table 1", "value": 520, "unit": "nm"}, {"measurement": "Molar extinction coefficient (ε)", "setting": "[2]; Table 1", "value": "4.8 × 10^4"}, {"measurement": "Absorption maximum (λmax)", "setting": "[2]; Table 2", "value": 520, "unit": "nm"}]}, {"compound": "CCN(CCC#N)c1ccc(N=C2C(C)=Nn3nc(C(C)CNC(=O)CCCOc4ccc(OC)cc4)nc32)cc1", "note": "(stereo not drawn) [X-3, reference compound]", "values": [{"measurement": "Solubility", "setting": "[1]", "value": 1.72, "unit": "wt. %"}, {"measurement": "Absorption maximum (λmax)", "setting": "[2]; Table 2", "value": 511, "unit": "nm"}]}, {"compound": "CCCCCCCCCCCCCCOC(=O)CCC(=O)Nc1ccc(-c2nc3n(n2)N=C(C(C)(C)C)C3=Nc2ccc(N(CCC#N)CCCC)cc2)cc1", "note": "[Ia-12]", "values": [{"measurement": "Solubility", "setting": "[1]", "value": "30.1 wt. % or more"}, {"measurement": "Absorption maximum (λmax)", "setting": "[2]; Table 1", "value": 519, "unit": "nm"}, {"measurement": "Molar extinction coefficient (ε)", "setting": "[2]; Table 1", "value": "4.8 × 10^4"}, {"measurement": "Absorption maximum (λmax)", "setting": "[2]; Table 2", "value": 519, "unit": "nm"}]}, {"compound": "CCCCCCC(Oc1ccc(C(C)(C)CC)cc1C(C)(C)CC)C(=O)Nc1ccc(-c2nc3n(n2)N=C(C(C)(C)C)C3=Nc2ccc(N(CC)CCC#N)cc2)cc1", "note": "(stereo not drawn) [Ia-13]", "values": [{"measurement": "Absorption maximum (λmax)", "setting": "[2]; Table 1", "value": 517, "unit": "nm"}, {"measurement": "Molar extinction coefficient (ε)", "setting": "[2]; Table 1", "value": "4.6 × 10^4"}]}, {"compound": "CCCCCCC(Oc1ccc(C(C)(C)CC)cc1C(C)(C)CC)C(=O)NCC(C)c1nc2n(n1)N=C(C)C2=Nc1ccc(N(CC)CCC#N)cc1", "note": "(stereo not drawn) [Ia-1]", "values": [{"measurement": "Absorption maximum (λmax)", "setting": "[2]; Table 1", "value": 512, "unit": "nm"}, {"measurement": "Molar extinction coefficient (ε)", "setting": "[2]; Table 1", "value": "5.0 × 10^4"}]}, {"compound": "CCCCCCC(Oc1ccc(C(C)(C)CC)cc1C(C)(C)CC)C(=O)Nc1ccc(-c2nc3n(n2)N=C(C(C)(C)C)C3=Nc2ccc(N(CCO)CCC#N)cc2C)cc1", "note": "(stereo not drawn) [Ia-15]", "values": [{"measurement": "Absorption maximum (λmax)", "setting": "[2]; Table 1", "value": 532, "unit": "nm"}, {"measurement": "Molar extinction coefficient (ε)", "setting": "[2]; Table 1", "value": "4.9 × 10^4"}]}, {"compound": "CCCCCCC(Oc1ccc(C(C)(C)CC)cc1C(C)(C)CC)C(=O)NCC(C)c1nc2n(n1)N=C(C)C2=Nc1ccc(N(CCO)CCC#N)cc1C", "note": "(stereo not drawn) [Ia-6]", "values": [{"measurement": "Solubility", "setting": "[1]", "value": "30.2 wt. % or more"}, {"measurement": "Absorption maximum (λmax)", "setting": "[2]; Table 1", "value": 522, "unit": "nm"}, {"measurement": "Molar extinction coefficient (ε)", "setting": "[2]; Table 1", "value": "5.2 × 10^4"}, {"measurement": "Absorption maximum (λmax)", "setting": "[2]; Table 2", "value": 522, "unit": "nm"}]}, {"compound": "CCN(CC)c1ccc(N=C2C(C)=Nn3nc(C(C)CNC(=O)CCCOc4ccc(OC)cc4)nc32)c(C)c1", "note": "(stereo not drawn) [X-4, reference compound]", "values": [{"measurement": "Solubility", "setting": "[1]", "value": 0.63, "unit": "wt. %"}, {"measurement": "Absorption maximum (λmax)", "setting": "[2]; Table 2", "value": 536, "unit": "nm"}]}, {"compound": "COc1ccc(OCCN(CCC#N)c2ccc(N=C3C(C)=Nn4nc(C(C)CN5C(=O)c6ccccc6C5=O)nc43)cc2)cc1", "note": "(stereo not drawn) [X-1, reference compound]", "values": [{"measurement": "Solubility", "setting": "[1]", "value": 0.18, "unit": "wt. %"}, {"measurement": "Absorption maximum (λmax)", "setting": "[2]; Table 2", "value": 504, "unit": "nm"}]}]}
